These results are taken from the NIST ThermoML archive (doi:10.1021/je500363r).

A short description of series [1]: Molar enthalpy of transition or fusion. The note with it: Crystal; DSC.
For series [2] the following is noted: Crystal; DTA.

Numbers after ± are expanded uncertainties.

Regarding `Br.CC(C)c1ccc(NC2=NCCC3(CCCCC3)[Se]2)cc1`, the “Molar enthalpy of transition or fusion” value in series [1] was found to be 12.9 ± 1 kJ/mol. The Normal melting temperature in series [2] came to 148.4 ± 0.5 °C.
Turning to `Br.Fc1ccc(NC2=NCCC3(CCCCC3)[Se]2)cc1`, in series [1], the “Molar enthalpy of transition or fusion” value was 25.1 ± 1.1 kJ/mol. In series [2], the Normal melting temperature was determined as 196.2 ± 0.5 °C.
For `Br.c1ccc(NC2=NCCC3(CCCCC3)[Se]2)cc1`, in that order: 18 ± 1.1 kJ/mol and 144.8 ± 0.5 °C.
